# Literature values as cited in US20070207952A1, “Long Acting Biologically Active Conjugates” (priority 2003, published 2007).
# Where no end group is shown, it is not given here. [ ]: non-standard residue; d: D form. The star is where a group is joined. Sta = CC(C)C[C@H](N)[C@@H](O)CC(=O)O; Cbz = O=C(OCc1ccccc1)*; Boc = CC(C)(C)OC(=O)*
# Biological target: T1, Human plasma renin (Homo sapiens, UniProt P00797)
# T1 construct: plasma renin
# T1 sequence (P00797 67-406): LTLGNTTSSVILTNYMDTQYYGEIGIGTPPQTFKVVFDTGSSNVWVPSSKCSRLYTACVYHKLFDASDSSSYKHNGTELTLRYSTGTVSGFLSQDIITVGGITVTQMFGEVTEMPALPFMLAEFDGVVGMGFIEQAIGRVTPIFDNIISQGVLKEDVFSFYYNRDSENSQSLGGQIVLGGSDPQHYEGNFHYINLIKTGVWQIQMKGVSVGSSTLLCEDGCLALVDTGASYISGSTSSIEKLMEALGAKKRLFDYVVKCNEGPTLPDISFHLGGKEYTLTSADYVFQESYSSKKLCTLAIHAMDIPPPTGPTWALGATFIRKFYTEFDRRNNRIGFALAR
# Details: literature values; cited from earlier work
row,Substance,IC50 [nM]
1,Boc-Phe-His-ACHPA---Leu-AMB,1
2,Boc-Phe-His-Cha-(CH2NH)Val-NH-2(S)-Me(Bu),86
3,Boc-Phe-His-Sta---Ile-AMP,6
4,Boc-Phe-His-Sta---Leu-AMB,9
5,Boc-Phe-His-Sta---Leu-NHCH2Ph,26
6,Boc-Pro-Phe-His-Sta---Ile-AMP,4.1
7,Cbz-RRPFH[Sta]IHK(Boc)-OMe,1
8,Iva-Phe-Nle-Sta-Ala-Sta,28
9,PEC-Phe-His-ACHPA-ILeNHC(CH2OH)2CH3,< 0.01
10,PHPFH[Sta]IF-NH2,3
11,PHPFH[Sta]IH[dK],26
12,Pro-His-Pro-Phe-His-Leu(CH2NH)Val-Ile-His-Lys,10
